Measurements taken from patent US7662825B2, “N-pyrazinyl-phenylsulphonamides and their use in the treatment of chemokine mediated diseases” (AstraZeneca AB, priority 2002, dated 2010).

Target: T1, human recombinant CCR4 receptor (Homo sapiens, UniProt P51679)
T1 construct: host or cells: CHO-K1
T1 sequence (P51679 1-360): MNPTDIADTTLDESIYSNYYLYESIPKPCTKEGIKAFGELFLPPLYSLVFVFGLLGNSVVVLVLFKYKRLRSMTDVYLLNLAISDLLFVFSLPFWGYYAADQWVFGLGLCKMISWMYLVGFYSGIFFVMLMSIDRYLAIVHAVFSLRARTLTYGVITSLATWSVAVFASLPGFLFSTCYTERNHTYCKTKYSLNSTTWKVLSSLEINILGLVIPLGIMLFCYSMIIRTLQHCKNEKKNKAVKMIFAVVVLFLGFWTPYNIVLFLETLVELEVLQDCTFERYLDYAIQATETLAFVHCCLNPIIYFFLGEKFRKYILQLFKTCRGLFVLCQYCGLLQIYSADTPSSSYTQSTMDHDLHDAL
Test: FMAT whole cell binding assay (FB-MDC binding to cells)
Settings: CHO-K1 cells stably expressing human recombinant CCR4; inhibition of binding of fluorescent FB-MDC, two hours at room temperature
Protocol: FMAT Whole Cell Binding Assay
CHO—K1 cells stably expressing the human recombinant CCR4 receptor (Euroscreen; Brussels, Belgium) were cultured in NUT.MIX.F—12(HAM) medium with glutamax-1, containing 10% (v/v) foetal bovine serum and 400 μg ml^−1 geneticin.
Cells were harvested at approximately 70% confluence by treatment with a cell dissociation buffer, and seeded at 5×10^3 cells/100 μl culture medium into wells of a black Costar clear-bottomed 96-well microtitre plates. Plates were incubated overnight at 37° C. in 5% CO2 and used the following day.
Before use, the cell plates were washed twice with 100 μl Hanks balanced salt solution (HBSS). To each well was then added 65 μl of HBSS, 10 μL of 10% DMSO in HBSS±test compound and then 25 μL of 2.8 nM FB-MDC (Applied Biosystems). This fluorescent probe was prepared from a 10 μM stock in 0.08% (v/v) TFA/16% (v/v) acetonitrile, diluted into HBSS.
After two hours incubation in the dark at room temperature, the plates were analysed in an FMAT8100 reader (Applied Biosystems) to measure fluorescence that was associated with binding of FB-MDC to the cells.

IC50	Compound
0.0631 µM	COC(=O)c1nc(OC)c(NS(=O)(=O)c2cccc(Cl)c2Cl)nc1C [Example 119, 5-(2,3-Dichlorobenzenesulphonylamino)-6-methoxy-3-methylpyrazine-2-carboxylic aicd, methyl ester]
0.631 µM	COc1nc(CN2CCOCC2)cnc1NS(=O)(=O)c1cccc(Cl)c1Cl [Example 186, 2,3-Dichloro-N-[3-methoxy-5-(4-morpholinylmethyl)-2-pyrazinyl]benzenesulphonamide]

Tested on: not given
Test: not given
Settings: not given

Compound	melting point
COC(=O)c1nc(OC)c(NS(=O)(=O)c2cccc(Cl)c2Cl)nc1C [Example 119, 5-(2,3-Dichlorobenzenesulphonylamino)-6-methoxy-3-methylpyrazine-2-carboxylic aicd, methyl ester]	149 to 150 °C
C#CCOc1nccnc1NS(=O)(=O)c1cccc(Cl)c1Cl [Example 189, 2,3-Dichloro-N-[3-(2-propynyloxy)-2-pyrazinyl)benzenesulphonamide]	153 to 154 °C
COc1nc(C#N)cnc1NS(=O)(=O)c1cccc(Cl)c1Cl [Example 190, 2,3-Dichloro-N-(5-cyano-3-methoxy-2-pyrazinyl)benzenesulphonamide]	239 to 240 °C
COc1ncc(CO)nc1NS(=O)(=O)c1cccc(Cl)c1Cl [Example 202, 2,3-Dichloro-N-[6-(hydroxymethyl)-3-methoxy-2-pyrazinyl]benzenesulphonamide]	153 to 155 °C
COc1nc(S(C)(=O)=O)cnc1NS(=O)(=O)c1cccc(Cl)c1Cl [Example 203, 2,3-Dichloro-N-(5-methanesulphonyl-3-methoxy-2-pyrazinyl)benzenesulphonamide]	237 to 238 °C
COc1nc(C(F)F)cnc1NS(=O)(=O)c1cccc(Cl)c1Cl [Example 206, 2,3-Dichloro-N-(5-difluoromethyl-3-methoxy-2-pyrazinyl)benzenesulphonamide]	117 to 118 °C
CC(Oc1nc(Cl)cnc1NS(=O)(=O)c1cccc(Cl)c1Cl)C1CC1 (stereo not shown) [Example 208]	161 to 162 °C
O=S(=O)(Nc1ncc(Cl)nc1OCc1ccc(CNC2CC2)o1)c1cccc(Cl)c1Cl [Example 210, 2,3-Dichloro-N-[5-chloro-3-(5-cyclopropylaminomethyl-2-furanylmethoxy)-2-pyrazinyl]-benzenesulphonamide]	175 to 176 °C
Nc1nc(COc2nc(Cl)cnc2NS(=O)(=O)c2cccc(Cl)c2Cl)co1 [Example 212, N-[3-[(2-amino-4-oxazolyl)methoxy]-5-chloro-2-pyrazinyl]-2,3-dichlorobenzenesulphonamide]	137 °C

Next, values leading:

melting point	Compound
50 to 60 °C	COc1ncc(C)nc1NS(=O)(=O)c1cccc(Cl)c1Cl [Example 194, 2,3-Dichloro-N-(3-methoxy-6-methyl-2-pyrazinyl)benzenesulphonamide]
95 to 105 °C	COc1nc(Cn2cncn2)cnc1NS(=O)(=O)c1cccc(Cl)c1Cl [Example 195, 2,3-Dichloro-N-[3-methoxy-5-(1H-1,2,4-triazol-1-ylmethyl)-2-pyrazinyl]benzenesulphonamide]
201 to 202 °C	NCc1ccc(COc2nc(Cl)cnc2NS(=O)(=O)c2cccc(Cl)c2Cl)o1 [Example 196, N-(3-(5-Aminomethyl-2-furanylmethoxy)-5-chloro-2-pyrazinyl)-2,3-dichloro-benzenesulphonamide]
199 to 201 °C	NCc1ccc(COc2nccnc2NS(=O)(=O)c2cccc(Cl)c2Cl)o1 [Example 197, N-(3-(5-Aminomethyl-2-furanylmethoxy)-2-pyrazinyl)-2,3-dichlorobenzenesulphonamide]
110 to 112 °C	C#CCOc1cnc(NS(=O)(=O)c2cccc(Cl)c2Cl)c(OC)n1 [Example 198, 2,3-Dichloro-N-[3-methoxy-5-(2-propyn-1-yloxy)-2-pyrazinyl]benzenesulphonamide]
185 to 190 °C	COC(=O)COc1cnc(NS(=O)(=O)c2cccc(Cl)c2Cl)c(OC)n1 [Example 199, {[5-(2,3-Dichlorophenylsulfonylamino)-6-methoxy-2-pyrazinyl]oxy}acetic acid, methyl ester]
153 to 155 °C	COc1nc(NC(=O)CO)cnc1NS(=O)(=O)c1cccc(Cl)c1Cl [Example 200, N-[5-(2,3-Dichlorophenylsulphonylamino)-6-methoxy-2-pyrazinyl]-2-hydroxyacetamide]
90 to 92 °C	COC(=O)c1cnc(OC)c(NS(=O)(=O)c2cccc(Cl)c2Cl)n1 [Example 201, 6-(2,3-Dichlorophenylsulphonylamino)-5-methoxy-2-pyrazinecarboxylic acid, methyl ester]
117 to 118 °C	CCN(CC)C(=O)COc1cnc(NS(=O)(=O)c2cccc(Cl)c2Cl)c(OC)n1 [Example 204, 2-[5-(2,3-Dichlorobenzenesulphonylamino)-6-methoxy-2-pyrazinyloxy]-N,N-diethyl-acetamide]
117 to 118 °C	COc1nc(SCCN(C)C)cnc1NS(=O)(=O)c1cccc(Cl)c1Cl [Example 205, 2,3-Dichloro-N-{5-[2-(dimethylamino)ethylsulphanyl]-3-methoxy-2-pyrazinyl]benzenesulphonamide]
192 to 194 °C	COc1nccnc1NS(=O)(=O)c1ccc(F)c(Cl)c1Cl [Example 207, 2,3-Dichloro-4-fluoro-N-(3-methoxy-2-pyrazinyl)benzenesulphonamide]
